Source: PubChem BioAssay (NCI)
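Grown in 96-well plates, cells were treated for 48 hours with each compound at five concentrations. Insufficient inhibition: endpoint recorded as highest concentration tested. Definition used: TGI = concentration required for complete inhibition of growth.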

Experiments:
Experiment in all cases: NCI anticancer screen, dose series, 48 h
UACC-62 melanoma = system: UACC-62 melanoma
OVCAR-4 ovarian = system: OVCAR-4 ovarian
SN12C renal = system: SN12C renal
SF-539 CNS = system: SF-539 CNS
M14 melanoma = system: M14 melanoma
T-47D breast = system: T-47D breast
MDA-MB-435 = system: MDA-MB-435
NCI-H23 lung = system: NCI-H23 lung
SF-268 CNS = system: SF-268 CNS
SK-MEL-5 melanoma = system: SK-MEL-5 melanoma
SNB-75 CNS = system: SNB-75 CNS
SK-OV-3 ovarian = system: SK-OV-3 ovarian
HS 578T breast = system: HS 578T breast
OVCAR-3 ovarian = system: OVCAR-3 ovarian
NCI/ADR-RES ovarian = system: NCI/ADR-RES ovarian
UO-31 renal = system: UO-31 renal
HCC-2998 colon = system: HCC-2998 colon
COLO 205 colon = system: COLO 205 colon
MOLT-4 leukemia = system: MOLT-4 leukemia
SK-MEL-2 melanoma = system: SK-MEL-2 melanoma
MDA-MB-231 breast = system: MDA-MB-231 breast
ACHN renal = system: ACHN renal
NCI-H522 lung = system: NCI-H522 lung
SW-620 colon = system: SW-620 colon
SF-295 CNS = system: SF-295 CNS
A498 renal = system: A498 renal
RPMI-8226 leukemia = system: RPMI-8226 leukemia
MDA-N = system: MDA-N
DU-145 prostate = system: DU-145 prostate
K-562 leukemia = system: K-562 leukemia
IGROV1 ovarian = system: IGROV1 ovarian
CAKI-1 renal = system: CAKI-1 renal
HCT-15 colon = system: HCT-15 colon
OVCAR-5 ovarian = system: OVCAR-5 ovarian
MALME-3M melanoma = system: MALME-3M melanoma
UACC-257 melanoma = system: UACC-257 melanoma
U251 CNS = system: U251 CNS
OVCAR-8 ovarian = system: OVCAR-8 ovarian
RXF 393 renal = system: RXF 393 renal
A549 NSCLC = system: A549 NSCLC
HOP-92 NSCLC = system: HOP-92 NSCLC
EKVX NSCLC = system: EKVX NSCLC
HT29 colon = system: HT29 colon
SR leukemia = system: SR leukemia
LOX IMVI melanoma = system: LOX IMVI melanoma
BT-549 breast = system: BT-549 breast
CCRF-CEM leukemia = system: CCRF-CEM leukemia
NCI-H226 lung = system: NCI-H226 lung
HCT-116 colon = system: HCT-116 colon
TK-10 renal = system: TK-10 renal
HOP-62 NSCLC = system: HOP-62 NSCLC
MCF7 breast = system: MCF7 breast
786-0 renal = system: 786-0 renal
PC-3 prostate = system: PC-3 prostate
SK-MEL-28 melanoma = system: SK-MEL-28 melanoma
NCI-H460 lung = system: NCI-H460 lung
HL-60(TB) leukemia = system: HL-60(TB) leukemia
KM12 colon = system: KM12 colon
SNB-19 CNS = system: SNB-19 CNS
SNB-78 CNS = system: SNB-78 CNS
DMS 114 small cell lung = system: DMS 114 small cell lung
KM20L2 colon = system: KM20L2 colon
DMS 273 small cell lung = system: DMS 273 small cell lung
M19-MEL melanoma = system: M19-MEL melanoma
DLD-1 colon = system: DLD-1 colon

CC(C)c1ccc(C(c2c(O)c3ccccc3oc2=O)c2c(O)c3ccccc3oc2=O)cc1
TGI (UACC-62 melanoma): 31.2 µM
TGI (OVCAR-4 ovarian): 94 µM
TGI (SN12C renal): 48.6 µM
TGI (SF-539 CNS): 39.4 µM
TGI (M14 melanoma): 38.4 µM
TGI (T-47D breast): > 100 µM
TGI (MDA-MB-435): 39.3 µM
TGI (NCI-H23 lung): 51.6 µM
TGI (SF-268 CNS): 66.6 µM
TGI (SK-MEL-5 melanoma): 31.3 µM
TGI (SNB-75 CNS): 75.8 µM
TGI (SK-OV-3 ovarian): 65.8 µM
TGI (HS 578T breast): 61.8 µM
TGI (OVCAR-3 ovarian): 37.9 µM
TGI (NCI/ADR-RES ovarian): 65.9 µM
TGI (UO-31 renal): 28.4 µM
TGI (HCC-2998 colon): 35.2 µM
TGI (COLO 205 colon): 34.2 µM
TGI (MOLT-4 leukemia): 21.9 µM
TGI (SK-MEL-2 melanoma): 30.8 µM
TGI (MDA-MB-231 breast): 45.6 µM
TGI (ACHN renal): 86.7 µM
TGI (NCI-H522 lung): 45.6 µM
TGI (SW-620 colon): 34.2 µM
TGI (SF-295 CNS): 52 µM
TGI (A498 renal): 35.4 µM
TGI (RPMI-8226 leukemia): 45.9 µM
TGI (MDA-N): 46.8 µM
TGI (DU-145 prostate): > 81.8 µM
TGI (K-562 leukemia): 51.4 µM
TGI (IGROV1 ovarian): > 62.6 µM
TGI (CAKI-1 renal): 46.5 µM
TGI (HCT-15 colon): 46.4 µM
TGI (OVCAR-5 ovarian): 37.4 µM
TGI (MALME-3M melanoma): 38.4 µM
TGI (UACC-257 melanoma): 53 µM
TGI (U251 CNS): 30.1 µM
TGI (OVCAR-8 ovarian): 42.5 µM
TGI (RXF 393 renal): 48.1 µM
TGI (A549 NSCLC): 45.7 µM
TGI (HOP-92 NSCLC): 21.2 µM
TGI (EKVX NSCLC): 55.2 µM
TGI (HT29 colon): 40.2 µM
TGI (SR leukemia): 31.1 µM
TGI (LOX IMVI melanoma): 33 µM
TGI (BT-549 breast): 39.9 µM
TGI (CCRF-CEM leukemia): 36.2 µM
TGI (NCI-H226 lung): 42.2 µM
TGI (HCT-116 colon): 33.2 µM
TGI (TK-10 renal): 68 µM
TGI (HOP-62 NSCLC): 50.5 µM
TGI (MCF7 breast): 86 µM
TGI (786-0 renal): 40.9 µM
TGI (PC-3 prostate): 37.9 µM
TGI (SK-MEL-28 melanoma): 40 µM
TGI (NCI-H460 lung): 37.6 µM
TGI (HL-60(TB) leukemia): 26.3 µM
TGI (KM12 colon): 40.4 µM
TGI (SNB-19 CNS): 49.9 µM

O=C(/C=C/c1ccc(O)c(O)c1)c1ccc(O)cc1O
TGI (UACC-62 melanoma): 48.3 µM
TGI (OVCAR-4 ovarian): 37.8 µM
TGI (SN12C renal): 43.9 µM
TGI (SF-539 CNS): 25.8 µM
TGI (M14 melanoma): 34.7 µM
TGI (T-47D breast): 20 µM
TGI (MDA-MB-435): 29.1 µM
TGI (NCI-H23 lung): 39.9 µM
TGI (SNB-78 CNS): 58.3 µM
TGI (SF-268 CNS): 37.6 µM
TGI (SK-MEL-5 melanoma): 26.3 µM
TGI (SNB-75 CNS): 25.2 µM
TGI (SK-OV-3 ovarian): 38 µM
TGI (HS 578T breast): 78.8 µM
TGI (OVCAR-3 ovarian): 37.4 µM
TGI (NCI/ADR-RES ovarian): > 84.1 µM
TGI (UO-31 renal): 30.3 µM
TGI (HCC-2998 colon): 34.2 µM
TGI (COLO 205 colon): 31 µM
TGI (MOLT-4 leukemia): 55.9 µM
TGI (SK-MEL-2 melanoma): 33.4 µM
TGI (MDA-MB-231 breast): 50.8 µM
TGI (ACHN renal): 45.3 µM
TGI (NCI-H522 lung): 8.65 µM
TGI (SW-620 colon): 35.2 µM
TGI (SF-295 CNS): 50.3 µM
TGI (A498 renal): 34.7 µM
TGI (RPMI-8226 leukemia): 55.2 µM
TGI (MDA-N): 19.8 µM
TGI (DU-145 prostate): 18.9 µM
TGI (K-562 leukemia): 25.4 µM
TGI (IGROV1 ovarian): 35.1 µM
TGI (CAKI-1 renal): 28.9 µM
TGI (HCT-15 colon): 44.3 µM
TGI (OVCAR-5 ovarian): 32.8 µM
TGI (MALME-3M melanoma): 28.7 µM
TGI (UACC-257 melanoma): 29.9 µM
TGI (U251 CNS): 17.6 µM
TGI (OVCAR-8 ovarian): 51 µM
TGI (RXF 393 renal): 25.8 µM
TGI (A549 NSCLC): 72.3 µM
TGI (HOP-92 NSCLC): 33.3 µM
TGI (EKVX NSCLC): 75.6 µM
TGI (HT29 colon): 33.4 µM
TGI (DMS 114 small cell lung): 7.55 µM
TGI (SR leukemia): > 78.8 µM
TGI (LOX IMVI melanoma): 24 µM
TGI (BT-549 breast): 14.6 µM
TGI (KM20L2 colon): 31.3 µM
TGI (CCRF-CEM leukemia): > 71.7 µM
TGI (NCI-H226 lung): 37.6 µM
TGI (DMS 273 small cell lung): 25 µM
TGI (HCT-116 colon): 28 µM
TGI (TK-10 renal): 60.3 µM
TGI (HOP-62 NSCLC): 42.4 µM
TGI (MCF7 breast): 15.7 µM
TGI (786-0 renal): 25.5 µM
TGI (PC-3 prostate): 52.6 µM
TGI (M19-MEL melanoma): 27.1 µM
TGI (SK-MEL-28 melanoma): 30.5 µM
TGI (NCI-H460 lung): 36.3 µM
TGI (HL-60(TB) leukemia): 22.3 µM
TGI (DLD-1 colon): 29.3 µM
TGI (KM12 colon): 24.3 µM
TGI (SNB-19 CNS): 43.9 µM
